pIC50: −log10 of the molar value. Read-outs that look alike come from different tables or passages of the source.

For this assay, the system named is CsgA gene expression (csgBAC promoter-GFP reporter) in E. coli UTI89. Kind of assay: In vitro live cell fluorescent reporter assay of CsgA transcription (Reporter Assay). It counts as cell-based. The settings on record: Escherichia coli; for IC50: read-out: Reporter Assay Abs IC50 (μM), median Abs IC50 in the CsgA reporter assay, N/A = maximum expression reduction is <50% of control. How it is done: In vitro live cell fluorescent reporter assay to determine effects of compounds on CsgA transcription. To assess the impact of compounds on CsgA gene expression, a live cell assay was performed using an engineered strain of E. coli UTI89 with a fluorescent CsgA gene expression reporter driven by the csgBAC promoter. In the reporter strain, a gene encoding Green Fluorescent Protein (GFP) was placed immediately downstream of the full intergenic region between csgDEF and csgBAC, containing the csgBAC promoter and other transcriptional regulatory elements, and inserted in single copy into the E. coli UTI89 chromosome, as described in Cegelski et. al., “Small-molecule inhibitors target Escherichia coli amyloid biogenesis and biofilm formation,” Nat. Chem. Bio., 25 Oct. 2009. With this construct, GFP expression in the reporter strain was under the same regulation as CsgA expression. The reporter strain was struck out on a YESCA agar plate (1 g/L yeast extract, 10 g/L casamino acids, 20 g/L Bacto Agar) and grown at about 27° C. for 2 days, or until single colonies were sufficiently large to pick. A single colony of the reporter strain was used to inoculate 5 mL of YESCA broth (1 g/L yeast extract, 10 g/L casamino acids), which was grown overnight at about 27° C. The inoculum was diluted 1:10 in YESCA broth and the optical density at 600 nm (OD600) was measured on a SpectraMax M2 or M5e (Molecular Devices, San Jose, Calif.) spectrophotometer in cuvettes. The culture was then further diluted to achieve a final OD600 of 0.003, which was confirmed by measurement of the OD600. Compounds were diluted in dimethyl sulfoxide (DMSO) and plated on black clear-bottomed tissue culture-treated 96-well plates with 1.5 μL/well for final test concentrations from 0.14-100 μM. All assay wells, including vehicle controls and positive controls for inhibition, included 1% DMSO final. Vehicle control wells consisted of DMSO and the reporter strain to assess the expression of the reporter strain in the assay in the absence of any compound. […] 148.5 μL culture at OD600 0.003 in YESCA broth was added to all wells for 150 μL final volume. Plates were incubated at 27° C. for 20 hours, then GFP fluorescence signal for each well was read on a Spectramax M2 or M5e plate reader with excitation at 485 nm, emission at 525 nm, and a cutoff at 515 nm. OD600 for each well was also measured on the Spectramax M2 or M5e plate reader. […] Background fluorescence was subtracted from all wells, then fluorescence signal for each well was normalized to the mean of the vehicle control wells. Normalized dose response curves were plotted for each compound, and compound inhibition of CsgA transcription was determined by assessing the curve-fit IC50, bottom, top, span (top-bottom), and Hill slope using GraphPad Prism software version 8.1.1 (GraphPad Software, San Diego, Calif.). An additional metric used to evaluate compounds was the concentration at which the curve reached 50% of the expression level of the vehicle control. This was written as a custom analysis in GraphPad Prism according to the formula X[50], or the X value at which Y=50, ie, the compound concentration at which fluorescence of the reporter strain was calculated to reach 50% of the vehicle control fluorescence. Separately from the fluorescence data, OD600 values were normalized to the mean of the vehicle control wells, and dose response curves were plotted for each compound. OD600 reduction of greater than 10% indicated compounds had some toxicity or negative impact on bacterial growth. […]

Where [1] appears, read: read-out: Reporter Assay Abs IC50, activity range, class symbol.
The mark [2] stands for this setting: read-out: Reporter Assay Abs IC50 (activity range), median Abs IC50 in the CsgA reporter assay, class symbol.

For the molecule `COc1ccc(Cc2c(-c3cccc(C(F)(F)F)c3)c3n(c(=O)c2Cl)C(C(=O)O)CN3Cc2ccccc2)c2ccccc12` (centres unmarked) [Compound 219, 1-benzyl-6-chloro-7-((4-methoxynaphthalen-1-yl)methyl)-5-oxo-8-(3-(trifluoromethyl)phenyl)-1,2,3,5-tetrahydroimidazo[1,2-a]pyridine-3-carboxylic acid], the IC50 worked out at 0.8 µM. Under setting [1], the pIC50 was above 5.89.

Consider `O=C(O)C1CN(Cc2ccccc2)c2c(-c3cccc(C(F)(F)F)c3)c(Cc3cccc4ncccc34)cc(=O)n21` (centres unmarked) [Compound 222, 1-benzyl-5-oxo-7-(quinolin-5-ylmethyl)-8-(3-(trifluoromethyl)phenyl)-1,2,3,5-tetrahydroimidazo[1,2-a]pyridine-3-carboxylic acid], for which the IC50 is 31.8 µM. Besides, the pIC50 under setting [1] is below 5.00.

For the molecule `CC(C)(C)c1ccc(Cc2cc(=O)n3c(c2-c2cccc(C(F)(F)F)c2)N(Cc2ccccc2)CC3C(=O)O)cc1` (centres unmarked) [Compound 227, 1-benzyl-7-(4-(tert-butyl)benzyl)-5-oxo-8-(3-(trifluoromethyl)phenyl)-1,2,3,5-tetrahydroimidazo[1,2-a] pyridine-3-carboxylic acid], the IC50 worked out at 1.8 µM. Besides, under setting [1], the pIC50 was 5.35 to 5.89.

With `O=C(O)C1CN(Cc2ccccc2)c2c(-c3cccc(C(F)(F)F)c3)c(Cc3cncc4ccccc34)cc(=O)n21` (centres unmarked) [Compound 221, 1-benzyl-7-(isoquinolin-4-ylmethyl)-5-oxo-8-(3-(trifluoromethyl)phenyl)-1,2,3,5-tetrahydroimidazo[1,2-a]pyridine-3-carboxylic acid], the IC50 worked out at 6.7 µM. Besides, the pIC50 under setting [1] was 5.00 to 5.34.

For the molecule `O=C(O)C1CN(Cc2ccccc2)c2c(-c3cccc(C(F)(F)F)c3)c(CN3CCC[C@@H](c4ccccc4)C3)cc(=O)n21` (stereo partly drawn) [Compound 231, 1-benzyl-5-oxo-7-(((S)-3-phenylpiperidin-1-yl)methyl)-8-(3-(trifluoromethyl)phenyl)-1,2,3,5-tetrahydroimidazo[1,2-a]pyridine-3-carboxylic acid], the IC50 was found to be 3.4 µM. For the same molecule, under setting [1], the pIC50 is 5.35 to 5.89.

For `CN1CC(C(=O)O)n2c(c(-c3cccc(C(F)(F)F)c3)c(Cc3cccc4ccccc34)cc2=O)S1(=O)=O` (racemic) [Compound 008, 2-methyl-8-(naphthalen-1-ylmethyl)-6-oxo-9-(3-(trifluoromethyl)phenyl)-3,4-dihydro-2H,6H-pyrido[1,2-e][1,2,5]thiadiazine-4-carboxylic acid 1,1-dioxide], the IC50 was determined as 4.3 µM. In addition, under setting [2], the pIC50 was 5.35 to 5.89.

For the molecule `O=C(O)C1CN(Cc2ccccc2)c2c(-c3cccc(C(F)(F)F)c3)c(CCc3ccccc3)cc(=O)n21` (centres unmarked) [Compound 236, 1-benzyl-5-oxo-7-phenethyl-8-(3-(trifluoromethyl)phenyl)-1,2,3,5-tetrahydroimidazo[1,2-a]pyridine-3-carboxylic acid], the IC50 turned out to be 1.7 µM. The pIC50 under setting [1] is 5.35 to 5.89.

Consider `O=C(O)C1CN(Cc2ccccc2)c2c(-c3cccc(C(F)(F)F)c3)c(Cc3ccccc3)cc(=O)n21` (centres unmarked) [Compound 235, 1,7-dibenzyl-5-oxo-8-(3-(trifluoromethyl)phenyl)-1,2,3,5-tetrahydroimidazo[1,2-a]pyridine-3-carboxylic acid], for which the IC50 amounted to 2.7 µM. The pIC50 under setting [1] is 5.35 to 5.89.

Consider `O=C(O)C1CN(Cc2ccccc2)c2c(-c3cccc(C(F)(F)F)c3)c(Cc3cccc4cccnc34)cc(=O)n21` (centres unmarked) [Compound 224, 1-benzyl-5-oxo-7-(quinolin-8-ylmethyl)-8-(3-(trifluoromethyl)phenyl)-1,2,3,5-tetrahydroimidazo[1,2-a]pyridine-3-carboxylic acid], for which the IC50 was found to be 9.7 µM. In addition, the pIC50 under setting [1] is 5.00 to 5.34.

`O=C(O)C1CN(Cc2ccccc2)c2c(-c3cccc(C(F)(F)F)c3)c(CN3CCCc4ccccc43)cc(=O)n21` (centres unmarked) [Compound 228, 1-benzyl-7-((3,4-dihydroquinolin-1 (2H)-yl)methyl)-5-oxo-8-(3-(trifluoromethyl)phenyl)-1,2,3,5-tetrahydroimidazo[1,2-a]pyridine-3-carboxylic acid]: the IC50 stood at 3.9 µM. Moreover, the pIC50 under setting [1] was 5.35 to 5.89.

For the molecule `O=C(O)C1CN(Cc2ccccc2)c2c(-c3cccc(C(F)(F)F)c3)c(CCc3ccccc3)c(Cl)c(=O)n21` (centres unmarked) [Compound 240, 1-benzyl-6-chloro-5-oxo-7-phenethyl-8-(3-(trifluoromethyl)phenyl)-1,2,3,5-tetrahydroimidazo[1,2-a]pyridine-3-carboxylic acid], the IC50 was 1.4 µM. Besides, the pIC50 under setting [1] is 5.35 to 5.89.

Consider `O=C(O)C1CN(Cc2ccccc2)c2c(-c3cccc(C(F)(F)F)c3)c(Cc3cccc4cnccc34)cc(=O)n21` (centres unmarked) [Compound 223, 1-benzyl-7-(isoquinolin-5-ylmethyl)-5-oxo-8-(3-(trifluoromethyl)phenyl)-1,2,3,5-tetrahydroimidazo[1,2-a] pyridine-3-carboxylate], for which the IC50 came out at 21.7 µM. The pIC50 under setting [1] was below 5.00.

As for `O=C(O)c1c[nH]c2c(-c3cccc(C(F)(F)F)c3)c(Cc3cccc4ccccc34)cc(=O)n12` [Compound 110, 7-(naphthalen-1-ylmethyl)-5-oxo-8-(3-(trifluoromethyl)phenyl)-1,5-dihydroimidazo[1,2-a]pyridine-3-carboxylic acid], the IC50 came out at 13.7 µM. In addition, the pIC50 under setting [2] is below 5.00.

Take `COc1ccc(Cc2cc(=O)n3c(c2-c2cccc(C(F)(F)F)c2)N(Cc2ccccc2)CC3C(=O)O)c2ccccc12` (centres unmarked) [Compound 220, 1-benzyl-7-((4-methoxynaphthalen-1-yl)methyl)-5-oxo-8-(3-(trifluoromethyl)phenyl)-1,2,3,5-tetrahydroimidazo[1,2-a]pyridine-3-carboxylic acid]: the IC50 came to 1.2 µM. In addition, the pIC50 under setting [1] was above 5.89.

Consider `O=C(O)C1CN(Cc2ccccc2)c2c(-c3cccc(C(F)(F)F)c3)c(CN3CCC[C@@H](c4ccccc4)C3)c(Cl)c(=O)n21` (stereo partly drawn) [Compound 230, 1-benzyl-6-chloro-5-oxo-7-(((S)-3-phenylpiperidin-1-yl)methyl)-8-(3-(trifluoromethyl)phenyl)-1,2,3,5-tetrahydroimidazo[1,2-a]pyridine-3-carboxylic acid], for which the IC50 amounted to 1.2 µM. Moreover, the pIC50 under setting [1] was above 5.89.

Consider `CCCCN1CC(C(=O)O)n2c(c(-c3cccc(C(F)(F)F)c3)c(Cc3cccc4ccccc34)cc2=O)S1(=O)=O` (racemic) [Compound 021, 2-butyl-8-(naphthalen-1-ylmethyl)-6-oxo-9-(3-(trifluoromethyl)phenyl)-3,4-dihydro-2H,6H-pyrido[1,2-e][1,2,5]thiadiazine-4-carboxylic acid 1,1-dioxide], for which the IC50 was determined as 2.6 µM. The pIC50 under setting [2] is 5.35 to 5.89.

`CC(C)(C)c1cccc(Cc2cc(=O)n3c(c2-c2cccc(C(F)(F)F)c2)N(Cc2ccccc2)CC3C(=O)O)c1` (centres unmarked) [Compound 226, 1-benzyl-7-(3-(tert-butyl)benzyl)-5-oxo-8-(3-(trifluoromethyl)phenyl)-1,2,3,5-tetrahydroimidazo[1,2-a] pyridine-3-carboxylic acid]: the IC50 was determined as 2.7 µM.

`O=C(O)C1CN(Cc2ccccc2)c2c(-c3cccc(C(F)(F)F)c3)c(CN3CCC[C@H](c4ccccc4)C3)c(Cl)c(=O)n21` (stereo partly drawn) [Compound 237, 1-benzyl-6-chloro-5-oxo-7-(((R)-3-phenylpiperidin-1-yl)methyl)-8-(3-(trifluoromethyl)phenyl)-1,2,3,5-tetrahydroimidazo[1,2-a]pyridine-3-carboxylic acid]: the IC50 was determined as 1.3 µM. Under setting [1], the pIC50 is 5.35 to 5.89.

These data come from US20230131899A1, “INHIBITORS OF MICROBIALLY INDUCED AMYLOID” (Axial Therapeutics, Inc., priority 2020, published 2023).
